# US11944607B2, “Treatment of progressive neurodegenerative disease with ibudilast” (MediciNova, Inc., priority 2007, dated 2024)
# Values joined by “and” are separate entries in the source; they are usually repeats but may differ in a detail not shown here. Identical values can stand only once.
# Key:
# [1] = system: activated microglia; conditions: dose-dependent; cited from earlier work
# [2] = administered systemically; cited from earlier work
# [3] = system: rat animal model for Alzheimer's disease; assay: Rat animal model for Alzheimer's disease; assay type: in vivo; conditions: present-tense example without data
# [4] = system: patients with multiple sclerosis; assay: Phase II clinical trial: brain volume loss by cranial MRI; assay type: in vivo, human
# Protocol: (§1) A Phase II placebo-controlled, randomized, double-blind study was conducted using ibudilast in patients with multiple sclerosis. During year 1, patients were treated with 0 mg tid (placebo), 10 mg tid or 20 mg tid of ibudilast; during year 2, patients on placebo were randomized to receive either 10 mg tid or 20 mg tid of ibudilast (patients on 10 mg tid or 20 mg tid during the first year of the study continued on that dose during the second year). A baseline MRI scan was taken two weeks prior to treatment. Brain volume changes were assessed on an annual basis with subsequent MRI scans. MRI scans were performed every two months of the 2-year period to assess changes in T1 and T2 lesions.
# [5] = system: animal model for progressive multiple sclerosis; assay: Animal model for progressive multiple sclerosis; assay type: in vivo; conditions: progressive MS model; present-tense example without data
# [6] = system: patients with multiple sclerosis; assay: Phase II placebo-controlled, randomized, double-blind study: relapse and disability (EDSS) outcomes; assay type: in vivo, human
# Protocol: as §1
# [7] = system: patients with multiple sclerosis; assay: Phase II clinical trial: double-blind MRI analysis of new lesion evolution to persistent black holes; assay type: in vivo, human; conditions: for Mean Proportion of Lesions Evolving to PBH / Median Proportion of Lesions Evolving to PBH: new lesions at month 2, PBH at month 10
# From the text: The study is the result of randomized, double-blind, placebo-controlled analysis of year 1 MRI data with MN-166 administration. MRIs were collected bimonthly during the one year treatment period and were re-evaluated in a double-blind manner for this new analysis. Predefined endpoints for this evaluation were the rate of evolution of new lesions to persistent black holes and remyelinated lesions. The predefined statistical endpoints were at the rate of evolution of new lesions (NL) to persistent black holes (PBH) and remyelinated lesions (RL). New T1 gadolinium-enhancing or new T2 lesions were defined as NL in the first on-study Mill at month 2. […] Hypointense lesions at month 2 or 4 that were isointense at month 10 were RL. Relative Risk (RR) of NL evolution to PBH and RL per patient was analyzed using a general linear model with the error term from the Poisson distribution.
# [8] = system: animal model for Parkinson's disease; assay: Animal model for Parkinson's disease; assay type: in vivo; conditions: present-tense example without data
# [9] = 30 mg (N = 94), 2 Years, p = 0.0832 vs Placebo to Active
# [10] = 60 mg (N = 98), 2 Years, p = 0.0516 vs Placebo to Active
# [11] = 2 Year Active (pooling of 30 mg and 60 mg dose groups), 2 Years, p = 0.0264 vs Placebo to Active
# [12] = Placebo to Active (to 30 mg/d), 2 Years (12 months placebo, 12 months drug)
# [13] = Placebo to Active (to 60 mg/d), 2 Years (12 months placebo, 12 months drug)
# [14] = Placebo to Active pooled (N = 100), 2 Years
smiles,measurement,setting,value
"CC(C)C(=O)c1c(C(C)C)nn2ccccc12 [ibudilast, 3-isobutyryl-2-isopropylpyrazolo[1,5-a]pyridine]","Production of IL-10, NGF, GDNF and NT-4",[1],enhance
same,"Production of nitric oxide (NO), reactive oxygen species, IL-1beta, IL-6 and TNF",[1],suppress
same,Blood-brain barrier crossing,[2],crosses the blood-brain barrier
same,Cognitive function,[3],improvement
same,Average loss of brain volume,"[4]; 60 mg a day, 1-year treatment period, placebo 1.2%, p 0.0352",0.79%
same,Brain volume loss compared to the other treatment groups (cranial MRI),"[4]; 60 mg per day for 24 months, p=0.030",significantly less
same,Brain volume loss compared to placebo (cranial MRI),"[4]; 60 mg per day, after 12 months, p=0.04",significant reduction
same,Brain volume loss,[4]; extended (at least about two years) administration,reduction
same,Functional outcomes,[5],improvement
same,"Disability Progression, number of patients","[6]; 30 mg (N = 94), 1 Year",5
same,"Disability Progression, percent of patients","[6]; 30 mg (N = 94), 1 Year",5.3%
same,"Disability Progression, number of patients",[6]; [9],10
same,"Disability Progression, percent of patients",[6]; [9],(10.6%)
same,"Disability Progression, number of patients","[6]; 60 mg (N = 98), 1 Year",4
same,"Disability Progression, percent of patients","[6]; 60 mg (N = 98), 1 Year",4.1%
same,"Disability Progression, number of patients",[6]; [10],10
same,"Disability Progression, percent of patients",[6]; [10],10.2%
same,Disability progression (worsened ≥1.0 on EDSS for 4 mo) (ITT),"[6]; 60 mg/day, year 1 (Table 1), p=0.334 vs pbo","pbo - 8%, 60 mg - 4%"
same,Annualized relapse rate,"[6]; 60 mg/day, year 1, ITT, p=0.1106 vs pbo","pbo - 0.9, 60 mg - 0.7 (ITT)"
same,IDSS (AUC of change from baseline EDSS),"[6]; 60 mg/day, year 1, ITT, p=0.1761 vs pbo","pbo: −0.05, 60 mg: −0.16 (ITT)"
same,IDSS (AUC of change from baseline EDSS),"[6]; 60 mg/day, year 1, completers, p=0.0365 vs pbo","pbo: −0.05, 60 mg: −0.24 (completers)"
same,Annualized relapse rate,"[6]; 60 mg/day, year 1, completers, p=0.0752 vs pbo","pbo - 0.8, 60 mg - 0.6 (completers)"
same,"Time to first relapse (ITT), median","[6]; 60 mg/day, year 1, p=0.0438 vs pbo (pbo 244 days)",Median for 60 mg >1 year
same,EDSS (% worsened) (ITT),"[6]; 60 mg/day, year 1, p=0.1771 vs pbo","pbo - 30%, 60 mg - 21.4%"
same,% of subjects exacerbation-free for 1 year (ITT),"[6]; 60 mg/day, p=0.033 vs pbo","pbo - 41%, 60 mg - 56.1%"
same,"Disability Progression, number of patients",[6]; [11],20/194
same,"Disability Progression, percent of patients",[6]; [11],10.4%
same,Likelihood of disability progression (≥1.0 point increase in EDSS for 4 consecutive months),"[6]; 24 months of drug vs 12 months of drug, p=0.026",less likely
same,"Disability Progression, number of patients",[6]; [12],8/51
same,"Disability Progression, percent of patients",[6]; [12],(15.7%)
same,"Disability Progression, number of patients",[6]; [13],13/49
same,"Disability Progression, percent of patients",[6]; [13],(26.5%)
same,"Disability Progression, number of patients",[6]; [14],21/100
same,"Disability Progression, percent of patients",[6]; [14],21%
same,Decrease in the rate of sustained disability progression,"[6]; extended (at least about two years) administration, compared with patients treated for less than two years",about 50%
same,"Prolongation of time to relapse, average","[6]; extended (at least about two years) administration, compared with untreated patients",about 130 days
same,# Patients w. New Lesions at Month 2,[7]; 30 mg/day (n=94),64
same,Mean Proportion of Lesions Evolving to PBH,[7]; 30 mg/day,0.20
same,Median Proportion of Lesions Evolving to PBH,[7]; 30 mg/day,0.08
same,Relative Risk (for Evolution to PBH) vs. placebo,"[7]; 30 mg/day, p=0.074, listed as MN-166",0.735 and 0.74
same,# Patients w. New Lesions at Month 2,[7]; 60 mg/day (n=98),56
same,Mean Proportion of Lesions Evolving to PBH,[7]; 60 mg/day,0.16
same,Median Proportion of Lesions Evolving to PBH,[7]; 60 mg/day,0.04
same,Relative Risk (for Evolution to PBH) vs. placebo,"[7]; 60 mg/day, p=0.011",0.63
same,Formation of black holes on MRI,"[7]; first year of treatment, MS patients",decreased
same,Conversion of acute lesions to persistent black holes,[7]; overall benefit statement for extended administration,reduction
same,Locomotion,[8],improvement
